In PMC9851200, “Multiparameter phenotypic screening for endogenous TFEB and TFE3 translocation identifies novel chemical series modulating lysosome function” (Autophagy, 2022):
Where two headings read alike, the source gives them in different places.

Legend:
endogenous TFEB = test: TFEB nuclear translocation, immunocytochemistry high-content imaging; format: cell-based; details: PKIS2 primary screening
endogenous TFE3 = test: TFE3 nuclear translocation, immunocytochemistry high-content imaging; format: cell-based; details: PKIS2 primary screening
SH-SY5Y cells [1] = test: Chemotype enrichment analysis of PKIS2 primary screen hit categories; details: PKIS2 primary screening, hit category
SH-SY5Y cells [2] = details: PKIS2 primary screening
Excerpt: The PKIS2 Library was supplied by The Structural Genomics Consortium at the University of North Carolina at Chapel Hill.

SH-SY5Y cells [3] = test: AK (adenylate kinase) release ToxiLight cytotoxicity assay; details: PKIS2 primary screening; further: reference of the scale not given here
SH-SY5Y cells [4] = test: Nuclear count from microscopy images (cellular growth and toxicity); details: PKIS2 primary screening; further: reference of the scale not given here
Wherever DQ Intensity is given: reference of the scale not given here.
Wherever DQ Spot is given: reference of the scale not given here.

Compound | TFEB % (endogenous TFEB) | TFE3 % (endogenous TFE3) | Outcome (SH-SY5Y cells [1]) | DQ Intensity (SH-SY5Y cells [2]; DQ Red BSA intensity) | DQ Spot (SH-SY5Y cells [2]; DQ Red BSA spot count) | AK (SH-SY5Y cells [3]) | Nuclear Count (SH-SY5Y cells [4]) | DQ Intensity (SH-SY5Y cells [2]) | DQ Spot (SH-SY5Y cells [2])
CS(=O)(=O)CCNCc1ccc(-c2ccc3ncnc(Nc4ccc(OCc5ccccc5)c(Cl)c4)c3c2)o1.Cl [UNC10112604A] | 8.74% | 24.66% | TFE3 | 133.51 | 89.48 | 78.47 | 96.24 | – | –
Cl.Nc1ncnc2occ(-c3ccc(NC(=O)Nc4cc(C(F)(F)F)ccc4F)cc3)c12 [UNC10112792A] | 5.26% | 17.19% | LYSO TOXIC | 73.11 | 78.83 | 84.72 | 92.62 | – | –
C=CC(=O)Nc1cc2c(Nc3ccc(F)c(Cl)c3)ncnc2cc1OCCCN1CCOCC1 [UNC10126563B] | 7.79% | 16.19% | TOXIC | 67.23 | 74.22 | 149.52 | 114.57 | – | –
Cc1ccn2nc(-c3ccc(F)cc3)c(-c3ccncc3)c2c1.Cl [UNC10224989A] | 29.24% | 6.03% | TFEB | 96.51 | 106.96 | 121.47 | 114.75 | – | –
CS(=O)(=O)c1ccc(-c2nc3n(c2-c2ccncc2)CCC3)cc1 [UNC10224995A] | 6.71% | 13.24% | TOXIC | 130.38 | 113.84 | 200.60 | 122.53 | – | –
Cl.c1ccc(-c2ccc3c(Nc4ccc5[nH]ncc5c4)ccnc3c2)nc1 [UNC10225007A] | 7.66% | 16.03% | LYSO TOXIC | 77.57 | 57.65 | 108.57 | 105.78 | – | –
Nc1ncc(-c2ccc3nccc(-c4ccncc4)c3c2)cc1S(=O)(=O)N1CCOCC1 [UNC10225011A] | 0.58% | 1.48% | DQ Only | 150.72 | 94.12 | 92.69 | 96.85 | – | –
COc1cc2nccc(Nc3ccc(NC(=O)c4ccc(C)cc4)c(O)c3)c2cc1OC.Cl [UNC10225013A] | 33.18% | 46.99% | LYSO TOXIC | 86.65 | 65.59 | 100.53 | 63.58 | – | –
Cl.Cl.NCC(C(=O)Nc1cc(Br)c(-c2ccnc3[nH]ccc23)s1)c1ccccc1 (centres unmarked) [UNC10225027A] | 6.97% | 26.86% | TFE3 | 115.17 | 95.94 | 80.33 | 108.23 | – | –
Cl.Cl.NC[C@H](CC1CCCCC1)NC(=O)c1ccc(-c2ccnc3[nH]ccc23)s1 [UNC10225041A] | 14.98% | 16.73% | TFEB + DQ Int | 229.52 | 72.59 | 135.71 | 83.64 | – | –
c1ccc(-c2n[nH]cc2Nc2ccnc3ccccc23)nc1 [UNC10225048A] | 2.79% | 9.11% | LYSO TOXIC | 106.75 | 56.59 | 99.18 | 152.96 | – | –
CC(=O)N1CCN(c2ccc(Nc3nccc(-c4sc(C(C)C)nc4-c4cccc(NS(=O)(=O)c5cccc(Cl)c5)c4)n3)cn2)CC1 [UNC10225481A] | 3.72% | 9.55% | – | – | – | 73.54 | 128.41 | 100.90 | 115.22
Cl.Oc1ccc(-c2nc(-c3ccccc3)[nH]c2-c2ccncc2)cc1 [UNC10225482A] | 7.63% | 9.08% | – | 99.60 | 108.10 | 90.33 | 92.35 | – | –
CSc1ccc(-c2nc3n(c2-c2ccncc2)CCC3)cc1 [UNC10225486A] | 5.52% | 13.99% | – | 119.41 | 102.53 | 80.57 | 91.88 | – | –
Cl.c1ccc(Cn2ccc3cc(Nc4ncnc5ccccc45)ccc32)cc1 [UNC10225488A] | 3.41% | 8.10% | – | 101.44 | 98.20 | 113.68 | 128.88 | – | –
Cc1ccc(CC(=O)N2CCc3cc(-c4cn(C)c5ncnc(N)c45)ccc32)cc1 [UNC10225490A] | 5.80% | 14.69% | – | – | – | 123.53 | 101.02 | 104.55 | 111.62
